Experimental data published in ChEMBL document CHEMBL4177651, “RNA as a small molecule druggable target” (Bioorg Med Chem Lett, 2017).
pIC50, pKd, pKi: −log10 of the molar value.

Experiments:
[1] = Inhibition of [gamma-32P]ATP labelled (CUG)4 RNA (unknown origin) binding to recombinant His6-tagged MBNL1N (1 to 272 residues) after 10 -15 mins incubation in presence of tRNA by SDS-PAGE analysis
[2] = Binding affinity to Aspergillus oryzae RNA TPP riboswitch after 40 hrs by SDS-PAGE analysis; conditions: read-out: Kd(app)
[3] = Binding affinity to 1A1 Bacillus subtilis xpt-pbuX RNA guanine riboswitch; conditions: read-out: Kd(app)
[4] = Binding affinity to Bacillus subtilis ribD RNA FMN riboswitch after 40 to 48 hrs by SDS-PAGE analysis; conditions: read-out: Kd(app)
Hepatitis C virus = assay: Antiviral activity against Hepatitis C virus genotype 1b infected in BM4-5 FEO replicon cells after 48 hrs by bright-glo luciferase reporter gene assay; assay type: functional, organism-based, Hepacivirus hominis; conditions: BM4-5, 48 h
[5] = Binding affinity bacterial RNA purine riboswitch sequence by isothermal titration calorimetry; parameters: species or system Bacteria; conditions: read-out: Kd(app)
[6] = Inhibition of poly(CUG) RNA (unknown origin) binding to recombinant N-terminal PL-MBNL1 preincubated for 30 mins followed by protein addition after 1 hr in presence of tRNA by enzyme fragment complementation assay
[7] = Inhibition of poly(CUG) RNA (unknown origin) splicing expressed in human Hela cells assessed as decrease in toxicity after 24 hrs by WST-1 assay; assay type: cell-based
[8] = Binding affinity to 1A1 Bacillus subtilis 179 lysC RNA lysine riboswitch by probing analysis; conditions: read-out: Kd(app)
Quadruplex DNA = assay: Binding affinity to biotin-labeled c-Myc Pu22 G-quadruplex DNA (unknown origin) assessed as […] by surface plasmon resonance assay; assay type: nucleic-acid assay

Work on `COc1ccc2nc3cc(Cl)ccc3c(NCCCCNc3nc(N)nc(N)n3)c2c1` yielded a pKi [1] of 4.28.
Compound `Cc1ncc(C[n+]2cccc(CCO)c2C)c(N)n1` has a pKd [2] of 7.70.
In the case of `ONc1ncnc2[nH]cnc12`, the pKd [3] was 7.70.
Work on `Cc1cc2nc3c(=O)[nH]c(=O)nc-3n(C[C@@H](O)[C@@H](O)[C@@H](O)CO)c2cc1N(C)C` yielded a pKd [4] of 7.00.
`CC(=O)c1ccc(C(=O)N[C@@H](CCCCN)C(=O)N2C[C@H](N)C[C@H](N)C2)cc1` gave a pIC50 (Hepatitis C virus) of 5.00.
In the case of `Nc1nc(N)c2nc[nH]c2n1` [2,6-DIAMINOPURINE], the pKd [5] was 8.40.
For `CN(C(=O)[C@@H]1CCCN1C(=O)c1ccc2c(c1)OCO2)[C@@H](CS)C(=O)N[C@@H](CCCCN)C(=O)NCCCN`, the pKi [6] was 5.52.
`Nc1cccc(-c2nc3cc(-c4ccc5[nH]c(-c6cccc(N)c6)nc5c4)ccc3[nH]2)c1` gave a pKi [7] of 4.30.
With `NCCS(=O)(=O)C[C@H](N)C(=O)O` the pKd [8] was 5.60.
For `O=C(Nc1ccc(-c2nc3ccccc3[nH]2)cc1)c1ccc(-c2ccc(Cl)cc2)o1`, the pKi [7] was 3.89.
In the case of `Cc1ccc(NC(=O)c2c(C)oc3ccc(O)c(CN4CCCCCC4)c23)cc1`, the pKd (Quadruplex DNA) was 5.35.
